Experimental data taken from patent US11091472B2, “PI-kinase inhibitors with anti-infective activity” (The Board of Trustees of the Leland Stanford Junior …, priority 2016, dated 2021).

How the values were obtained:
PI4KIIIB = PI4KIIIB (Bos taurus (Bovine), UniProt O02810); test: PI4KIIIβ kinase assay (immunoprecipitated HA-tagged enzyme, [γ-32P]-ATP); assay type: biochemical; settings: kinase activity
HRV = test: Rhinovirus antiviral assay; assay type: cell-based; settings: Human rhinovirus sp.; Table 5
EV71 = EV71 antiviral assay; assay type: cell-based; settings: Enterovirus A, Table 5

Sequence of PI4KIIIB (O02810 whole entry): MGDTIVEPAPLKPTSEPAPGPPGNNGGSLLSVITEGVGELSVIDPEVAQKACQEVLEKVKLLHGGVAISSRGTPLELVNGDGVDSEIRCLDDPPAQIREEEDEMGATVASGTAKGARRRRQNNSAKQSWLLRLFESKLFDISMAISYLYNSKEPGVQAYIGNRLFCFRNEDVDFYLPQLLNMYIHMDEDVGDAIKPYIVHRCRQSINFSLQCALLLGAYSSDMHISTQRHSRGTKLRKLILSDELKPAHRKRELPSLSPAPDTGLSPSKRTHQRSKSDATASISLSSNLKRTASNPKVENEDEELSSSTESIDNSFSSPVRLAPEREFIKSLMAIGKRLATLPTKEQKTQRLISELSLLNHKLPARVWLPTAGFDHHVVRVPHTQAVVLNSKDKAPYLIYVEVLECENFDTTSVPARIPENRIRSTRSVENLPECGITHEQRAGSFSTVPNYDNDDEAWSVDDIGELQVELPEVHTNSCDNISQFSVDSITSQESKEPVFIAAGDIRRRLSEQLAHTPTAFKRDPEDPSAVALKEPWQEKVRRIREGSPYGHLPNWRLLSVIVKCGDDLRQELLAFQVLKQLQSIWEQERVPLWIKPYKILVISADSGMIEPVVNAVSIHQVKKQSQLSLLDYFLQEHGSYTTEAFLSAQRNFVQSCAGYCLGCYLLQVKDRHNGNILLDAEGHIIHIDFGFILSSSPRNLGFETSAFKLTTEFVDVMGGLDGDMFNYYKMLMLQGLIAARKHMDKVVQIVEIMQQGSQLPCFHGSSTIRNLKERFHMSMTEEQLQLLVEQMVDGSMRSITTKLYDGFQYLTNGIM

Compound	IC50 (PI4KIIIB)	EC50 (HRV)	EC50 (EV71)
COc1ccc(-c2sc(NC(=O)CC3CCOCC3)nc2C)cc1S(=O)(=O)Nc1ccccc1F [Compound S-230]	< 100 nM		
COc1ncc(-c2sc(NC(=O)CC3CCOCC3)nc2C)cc1S(=O)(=O)Nc1ccc(F)cc1F [Compound S-258]	1000 to 10000 nM		
COc1ccc(-c2sc(NC(C)C3CCOCC3)nc2C)cc1S(=O)(=O)Nc1ccccc1C (stereo not drawn) [Compound S-315]		1 to 100 nM	1 to 100 nM
COc1ccc(-c2sc(NC(C)C3CCOCC3)nc2C)cc1S(=O)(=O)Nc1ccc(O)cc1C (stereo not drawn) [Compound S-317]		1 to 100 nM	1 to 100 nM
COc1ccc(-c2sc(NC(C)C3CCOCC3)nc2C)cc1S(=O)(=O)Nc1ccc(O)cc1Cl (stereo not drawn) [Compound S-318]		1 to 100 nM	< 1 nM
COc1ccc(-c2sc(NC(C)C3CCOCC3)nc2C)cc1S(=O)(=O)Nc1ccc(O)cc1 (stereo not drawn) [Compound S-319]		1 to 100 nM	1 to 100 nM
COc1ccc(-c2sc(NC(C)C3CCOCC3)nc2C)cc1S(=O)(=O)Nc1cccc(O)c1 (stereo not drawn) [Compound S-320]		1 to 100 nM	1 to 100 nM
COc1ccc(-c2sc(NC(C)C3CCOCC3)nc2C)cc1S(=O)(=O)Nc1c(F)cccc1F (stereo not drawn) [Compound S-321]		1 to 100 nM	1 to 100 nM
COc1ccc(-c2sc(NC(C)C3CCOCC3)nc2C)cc1S(=O)(=O)Nc1c(F)cccc1Cl (stereo not drawn) [Compound S-322]		1 to 100 nM	1 to 100 nM
COc1ccc(-c2sc(NC(C)C3CCOCC3)nc2C)cc1S(=O)(=O)Nc1c(C)cccc1F (stereo not drawn) [Compound S-323]		< 1 nM	< 1 nM
COC(=O)c1ccc(NS(=O)(=O)c2cc(-c3sc(NC(C)C4CCOCC4)nc3C)ccc2OC)cc1 (stereo not drawn) [Compound S-324]		1 to 100 nM	1 to 100 nM
COc1ccc(-c2sc(NC(C)C3CCOCC3)nc2C)cc1S(=O)(=O)Nc1ccc(C(=O)O)cc1 (stereo not drawn) [Compound S-325]		1000 to 10000 nM	1000 to 10000 nM
COc1ccc(-c2sc(NC(C)C3CCOCC3)nc2C)cc1S(=O)(=O)NC1CCNCC1 (stereo not drawn) [Compound S-326]		100 to 1000 nM	1 to 100 nM
COc1ccc(-c2sc(NC(C)C3CCOCC3)nc2C)cc1S(=O)(=O)NC1CCC(OC(C)=O)CC1 (stereo not drawn) [Compound S-327]		1 to 100 nM	1 to 100 nM
COc1ccc(-c2sc(NC(C)C3CCOCC3)nc2C)cc1S(=O)(=O)Nc1ncccc1C (stereo not drawn) [Compound S-329]		1 to 100 nM	1 to 100 nM
COc1ccc(-c2sc(NC(C)C3CCOCC3)nc2C)cc1S(=O)(=O)Nc1ncccc1F (stereo not drawn) [Compound S-330]		1000 to 10000 nM	100 to 1000 nM
COc1ccc(-c2sc(NC(C)C3CCOCC3)nc2C)cc1S(=O)(=O)Nc1cccnc1C (stereo not drawn) [Compound S-331]		1 to 100 nM	1 to 100 nM
COc1ccc(-c2sc(NC(C)C3CCOCC3)nc2C)cc1S(=O)(=O)Nc1c(F)cncc1F (stereo not drawn) [Compound S-333]		100 to 1000 nM	100 to 1000 nM
COc1ncc(-c2sc(NC(C)C3CCOCC3)nc2C)cc1S(=O)(=O)Nc1ccc(O)cc1F (stereo not drawn) [Compound S-334]		1 to 100 nM	1 to 100 nM
COc1ncc(-c2sc(NC(C)C3CCOCC3)nc2C)cc1S(=O)(=O)Nc1ccccc1C (stereo not drawn) [Compound S-335]		1 to 100 nM	1 to 100 nM
COc1ncc(-c2sc(NC(C)C3CCOCC3)nc2C)cc1S(=O)(=O)Nc1ccc(F)cc1F (stereo not drawn) [Compound S-336]		1 to 100 nM	1 to 100 nM
COc1ncc(-c2sc(NC(C)C3CCOCC3)nc2C)cc1S(=O)(=O)Nc1ccc(F)cc1Cl (stereo not drawn) [Compound S-337]		100 to 1000 nM	1 to 100 nM
COc1ncc(-c2sc(NC(C)C3CCOCC3)nc2C)cc1S(=O)(=O)Nc1ccc(F)cc1C (stereo not drawn) [Compound S-338]		1 to 100 nM	1 to 100 nM
COc1ncc(-c2sc(NC(C)C3CCOCC3)nc2C)cc1S(=O)(=O)Nc1ccccc1F (stereo not drawn) [Compound S-339]		1 to 100 nM	1 to 100 nM
COc1ncc(-c2sc(NC(C)C3CCOCC3)nc2C)cc1S(=O)(=O)Nc1ccc(O)cc1C (stereo not drawn) [Compound S-340]		1 to 100 nM	1 to 100 nM
